Experimental data from US20200352912A1, “ANTIMICROBIAL COMPOSITIONS AND METHODS OF USING THE SAME” (The Board Of Supervisors Of Louisiana State University And …, priority 2018, published 2020).

Tests used:
MRSA = experiment: checkerboard broth microdilution synergy test with oxacillin; type: cell-based, Staphylococcus aureus; conditions: combination with oxacillin
Experimental: Due to the newfound antimicrobial activity of L-161, 982 against S. aureus, the checkerboard method (14) with the broth microdilution method, was used to test for synergy with oxacillin, a drug similar to methicillin used more commonly in the clinical setting. Synergy was determined using the fractional inhibitory concentration index (FICI) method (14, 15). With this method, the MIC of the antibiotic compound in combination is divided by the MIC of the compound alone, giving the fractional contribution of each drug component in combination. Quotients for all compounds in combination are summed and drug interactions scored using the formula:
FICI=((MIC AcombA+B)/MICA)+((MIC BcombA+B)/MICB)
The stock solutions and serial twofold dilutions of oxacillin ranged from 8× the MIC to 32× below the MIC and that of L-161, 982 ranged from 8× the MIC to 2000× below the MIC. Oxacillin was serially diluted along the ordinate, while L-161, 982 was diluted along the abscissa. The resulting checkerboard contained each combination of two drugs, with wells that contain the highest concentration of each antibiotic at opposite corners. Each microtiter well was inoculated with 1×10^5 CFU. The plates were incubated at 37° C. for 24 h and the OD600 measured using a microplate spectrophotometer. […]

[1] = tested on: clinical MRSA and MSSA strains isolated from a patient's catheter; experiment: planktonic antimicrobial assay, clinical isolates; type: cell-based, Staphylococcus aureus
Experimental: Effect of COX enzyme inhibitors or PGE2 EP receptor antagonists on microbial growth. The antimicrobial activity of selective COX enzyme inhibitor or PGE2 EP receptor antagonist on the growth of C. albicans DAY185 (A), S. aureus NRS383 (B) and MRSA and MSSA clinical isolates (C). Growth of C. albicans and S. aureus was monitored for up to 24 h in medium alone or supplemented with DMSO or EP receptor antagonists or COX enzyme inhibitor at physiologically relevant concentrations. Data shown are representative of three independent experiments.
Strains and growth conditions. The methicillin-resistant S. aureus strain NRS383 used in all experiments was obtained from the Network on Antimicrobial Resistance in S. aureus (NARSA) data bank. NRS383 is positive for the toxic shock syndrome toxin (tst) and 6-toxin genes. SJ-MRSA 6 and SJ-SA5 are methicillin-resistant (MRSA) and methicillin-sensitive (MSSA) clinical S. aureus strains respectively isolated from a patient's catheter. […]
C. albicans and S. aureus were grown as described above. […] Cells were grown with shaking as described above, and 1 ml aliquots were removed each hour in duplicate and optical density at 600 nm measured (OD600) by spectrophotometer (Biomate 3S, Thermo Scientific).

K. pneumoniae = experiment: spectrum of activity, bacterial growth; type: cell-based; conditions: 50 μg/ml, 6 h
Experimental: (§1) Bacterial growth was monitored for 6 h in medium alone or supplemented with 50 μg/ml of L-161, 982. Data shown is representative of three independent experiments.
(§2) Strains and growth conditions. The methicillin-resistant S. aureus strain NRS383 used in all experiments was obtained from the Network on Antimicrobial Resistance in S. aureus (NARSA) data bank. NRS383 is positive for the toxic shock syndrome toxin (tst) and 6-toxin genes. SJ-MRSA 6 and SJ-SA5 are methicillin-resistant (MRSA) and methicillin-sensitive (MSSA) clinical S. aureus strains respectively isolated from a patient's catheter. Other bacterial species used in this study include Escherichia coli (ATCC 25922, clinical isolate), S. epidermidis (ATCC 12228), Klebsiella pneumonia (ATCC 43816), Enterococcus faecalis (ATCC 51299, clinical isolate), and Streptococcus mutans (UA159, 12). S. mutans strain was maintained in brain heart infusion (BHI) broth while the other bacterial species were maintained in Luria-Bertani broth. Frozen stocks were obtained at −80° C. and streaked onto agar plates at 37° C. prior to use. A single colony was transferred to 10 ml of culture broth and shaken at 37° C. overnight. On the following day, the overnight culture was diluted 1:100 in fresh growth medium and shaken at 37° C. for 3 h to obtain cells in mid-log growth phase. S. mutans cultures were grown without agitation in the presence of 5% CO2.
(§3) The spectrum of activity of L-161, 982 was investigated by testing several Gram-positive and Gram-negative bacteria.

E. faecium = experiment: spectrum of activity, bacterial growth; type: cell-based; conditions: 50 μg/ml, 6 h
Experimental: as §1, §2, §3

S. epidermidis = experiment: spectrum of activity, bacterial growth; type: cell-based; conditions: 50 μg/ml, 6 h
Experimental: as §1, §2, §3

Streptococcus mutans = experiment: spectrum of activity, bacterial growth; type: cell-based; conditions: 50 μg/ml, 6 h
Experimental: as §1, §2, §3

CCCCc1nn(-c2ccccc2C(F)(F)F)c(=O)n1Cc1ccc(-c2ccccc2S(=O)(=O)NC(=O)c2sccc2C)cc1 [L-161, 982, N-[[4′-[[3-Butyl-1,5-dihydro-5-oxo-1-[2-(trifluoromethyl)phenyl]-4H-1,2,4-triazol-4-yl]methyl][1,1′-biphenyl]-2-yl]sulfonyl]-3-methyl-2-thiophenecarboxamide]
fractional inhibitory concentration (FIC) index (MRSA): 0.563
growth of clinical MRSA and MSSA strains [1]: inhibited growth
growth inhibitory activity (K. pneumoniae): No inhibitory effects
growth inhibitory activity (E. faecium): No inhibitory effects
growth inhibitory activity (S. epidermidis): restricted to Gram-positive bacteria that included S. epidermidis and Streptococcus mutans
growth inhibitory activity (Streptococcus mutans): restricted to Gram-positive bacteria that included S. epidermidis and Streptococcus mutans
